According to ChEMBL document CHEMBL1201862, “PubChem BioAssay data set” (2004):
Active and inactive are the calls of the source.

What was measured:
[1] = target: Inhibitor of nuclear factor kappa-B kinase subunit epsilon (Homo sapiens, UniProt Q14164); assay: Navigating the Kinome. Panel member name: IKBKE; assay type: functional
[2] = target: Cyclin-dependent kinase 8 (Homo sapiens, UniProt P49336); assay: Navigating the Kinome. Panel member name: CDK8; assay type: functional
[3] = target: Ribosomal protein S6 kinase alpha-3 (Homo sapiens, UniProt P51812); assay type: functional;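 also: measured within a kinome-wide profiling panel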
[4] = target: Leukocyte tyrosine kinase receptor (Homo sapiens, UniProt P29376); assay: Navigating the Kinome. Panel member name: LTK; assay type: functional
[5] = target: Serine/threonine-protein kinase pim-1 (Homo sapiens, UniProt P11309); assay type: functional
[6] = target: Dual specificity tyrosine-phosphorylation-regulated kinase 1B (Homo sapiens, UniProt Q9Y463); assay: Navigating the Kinome. Panel member name: DYRK1B; assay type: functional
[7] = target: Dual specificity mitogen-activated protein kinase kinase 2 (Homo sapiens, UniProt P36507); assay: Navigating the Kinome. Panel member name: MAP2K2; assay type: functional
[8] = growth suppression of PTEN-null colon cells, dose response, cell-based, HCT116 PTEN knockout (AID 1047); assay type: functional;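 also: HCT116 colon tumor cells with PTEN knocked out; cells exposed to compound for 60 hours before readout; potency for loss of cell viability measured by luminescence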
[9] = Luminescence Cell-Based Dose Response HTS to Identify Activators of Luciferase Translation or Activity in H4 […] Cells. [Related pubchem assays: 1829 (Project Summary), 1814 (Primary HTS)]; assay type: functional
[10] = target: T1, Mannose-6-phosphate isomerase (Homo sapiens, UniProt P34949); assay: human PMI inhibitors, high substrate, primary screen, biochemical, fluorescence intensity, high mannose 6-phosphate (AID 1220)
T1 sequence (P34949 whole entry): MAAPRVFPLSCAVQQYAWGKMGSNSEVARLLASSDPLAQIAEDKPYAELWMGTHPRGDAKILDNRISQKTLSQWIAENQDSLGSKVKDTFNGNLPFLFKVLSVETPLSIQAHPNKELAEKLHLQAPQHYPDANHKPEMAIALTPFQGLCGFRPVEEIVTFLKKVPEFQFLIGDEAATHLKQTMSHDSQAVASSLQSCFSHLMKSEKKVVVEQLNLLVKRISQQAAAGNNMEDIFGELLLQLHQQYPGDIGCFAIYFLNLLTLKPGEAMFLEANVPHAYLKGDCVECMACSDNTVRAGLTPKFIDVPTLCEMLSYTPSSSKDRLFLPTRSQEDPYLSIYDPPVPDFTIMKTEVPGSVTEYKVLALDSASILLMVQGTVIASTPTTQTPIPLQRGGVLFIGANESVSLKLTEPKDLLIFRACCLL

[11] = target: Serine/threonine-protein kinase BRSK1 (Homo sapiens, UniProt Q8TDC3); assay type: functional;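 also: measured within a kinome-wide kinase panel, with the target listed as KIAA1811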
[12] = target: Testis-specific serine/threonine-protein kinase 1 (Homo sapiens, UniProt Q9BXA7); assay type: functional
[13] = target: MAP kinase-activated protein kinase 2 (Homo sapiens, UniProt P49137); assay type: functional;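 also: measured as one member of a kinome-wide kinase panel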
Misshapen-like kinase 1 = Misshapen-like kinase 1 (Homo sapiens, UniProt Q8N4C8); assay type: functional;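 also: kinome panel screen with MINK as the panel member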
[14] = target: Serine/threonine-protein kinase Nek2 (Homo sapiens, UniProt P51955); assay type: functional
[15] = target: MAP kinase-activated protein kinase 5 (Homo sapiens, UniProt Q8IW41); assay type: functional;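 also: measured as one member of a kinome panel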
[16] = target: Homeodomain-interacting protein kinase 4 (Homo sapiens, UniProt Q8NE63); assay type: functional
Focal adhesion kinase 1 = Focal adhesion kinase 1 (Homo sapiens, UniProt Q05397); assay type: functional;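 also: measured as one member of a kinome panel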
[17] = target: Serine/threonine-protein kinase pim-2 (Homo sapiens, UniProt Q9P1W9); assay type: functional;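 also: value comes from a broad kinase panel profiling study in which PIM2 was one of the panel members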
[18] = target: Serine/threonine-protein kinase Nek4 (Homo sapiens, UniProt P51957); assay type: functional
[19] = target: Serine/threonine-protein kinase Chk2 (Homo sapiens, UniProt O96017); assay type: functional;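 also: CHEK2 entry within a kinome-wide screening panel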
[20] = target: Tyrosine-protein kinase SYK (Homo sapiens, UniProt P43405); assay type: functional
[21] = target: Eukaryotic elongation factor 2 kinase (Homo sapiens, UniProt O00418); assay type: functional
[22] = target: 3-phosphoinositide-dependent protein kinase 1 (Homo sapiens, UniProt O15530); assay type: functional;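 also: value comes from the Navigating the Kinome panel, PDPK1 member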
[23] = target: Serine/threonine-protein kinase PLK4 (Homo sapiens, UniProt O00444); assay type: functional;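 also: PLK4 measured as one member of a kinome-wide kinase profiling panel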
[24] = target: Inhibitor of nuclear factor kappa-B kinase subunit beta (Homo sapiens, UniProt O14920); assay type: functional
[25] = target: Proto-oncogene tyrosine-protein kinase ROS (Homo sapiens, UniProt P08922); assay type: functional;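 also: ROS1 tested as one member of a kinome-wide kinase panel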
[26] = target: Inhibitor of nuclear factor kappa-B kinase subunit alpha (Homo sapiens, UniProt O15111); assay type: functional
[27] = target: Dual specificity tyrosine-phosphorylation-regulated kinase 3 (Homo sapiens, UniProt O43781); assay type: functional;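 also: measured as one member of a broad kinase panel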
[28] = target: Tyrosine-protein kinase Fer (Homo sapiens, UniProt P16591); assay type: functional;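 also: FER tested as one member of a kinome panel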
[29] = target: Tyrosine-protein kinase FRK (Homo sapiens, UniProt P42685); assay type: functional;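 also: FRK tested as one member of a kinome panel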
[30] = target: Cell division cycle 7-related protein kinase (Homo sapiens, UniProt O00311); assay type: functional;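 also: value obtained from a kinome-wide kinase panel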
Insulin receptor = Insulin receptor (Homo sapiens, UniProt P06213); assay type: functional;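 also: insulin receptor kinase tested as one member of a kinome-wide kinase panel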
[31] = target: Serine/threonine-protein kinase MRCK alpha (Homo sapiens, UniProt Q5VT25); assay type: functional
[32] = target: Tyrosine-protein kinase ABL1 (Homo sapiens, UniProt P00519); assay type: functional
[33] = target: STE20-like serine/threonine-protein kinase (Homo sapiens, UniProt Q9H2G2); assay type: functional
[34] = target: Tyrosine-protein kinase receptor UFO (Homo sapiens, UniProt P30530); assay type: functional
[35] = target: Ribosomal protein S6 kinase alpha-5 (Homo sapiens, UniProt O75582); assay type: functional
Bcl-2-related protein A1 = Bcl-2-related protein A1 (Mus musculus, UniProt Q07440); assay type: functional;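 also: confirmatory dose–response counterscreen on Bfl-1, used to check hits from a UBC13 polyubiquitin inhibitor campaign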
CAAX prenyl protease 1 = CAAX prenyl protease 1 (Saccharomyces cerevisiae S288c, UniProt P47154); assay: Ste24 protease inhibitors, dose response, biochemical, S. cerevisiae, plate reader, cherry-pick (AID 488815)

Inhibitor of nuclear factor kappa-B kinase subunit alpha, sequence (O15111 whole entry): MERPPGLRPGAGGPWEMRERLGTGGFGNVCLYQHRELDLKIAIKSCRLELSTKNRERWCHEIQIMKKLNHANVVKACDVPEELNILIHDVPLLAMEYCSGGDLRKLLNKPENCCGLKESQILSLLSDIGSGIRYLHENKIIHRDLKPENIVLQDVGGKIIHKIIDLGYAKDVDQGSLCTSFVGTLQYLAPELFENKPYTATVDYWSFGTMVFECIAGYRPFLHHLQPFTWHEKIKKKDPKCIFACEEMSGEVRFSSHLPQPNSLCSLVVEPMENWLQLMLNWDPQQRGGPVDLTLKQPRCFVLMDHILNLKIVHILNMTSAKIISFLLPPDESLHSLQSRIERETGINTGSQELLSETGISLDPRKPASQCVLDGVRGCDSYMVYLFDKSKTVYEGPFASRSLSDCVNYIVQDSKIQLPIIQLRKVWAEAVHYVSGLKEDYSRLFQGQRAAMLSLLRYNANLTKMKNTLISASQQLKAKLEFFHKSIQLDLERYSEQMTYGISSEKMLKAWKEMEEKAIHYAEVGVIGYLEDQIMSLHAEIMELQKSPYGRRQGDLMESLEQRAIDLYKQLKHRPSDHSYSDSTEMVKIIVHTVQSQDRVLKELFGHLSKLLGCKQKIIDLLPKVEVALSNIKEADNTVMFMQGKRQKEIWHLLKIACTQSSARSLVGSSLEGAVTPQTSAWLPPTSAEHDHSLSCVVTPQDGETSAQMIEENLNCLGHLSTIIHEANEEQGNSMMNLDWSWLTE
Serine/threonine-protein kinase Chk2, sequence (O96017 whole entry): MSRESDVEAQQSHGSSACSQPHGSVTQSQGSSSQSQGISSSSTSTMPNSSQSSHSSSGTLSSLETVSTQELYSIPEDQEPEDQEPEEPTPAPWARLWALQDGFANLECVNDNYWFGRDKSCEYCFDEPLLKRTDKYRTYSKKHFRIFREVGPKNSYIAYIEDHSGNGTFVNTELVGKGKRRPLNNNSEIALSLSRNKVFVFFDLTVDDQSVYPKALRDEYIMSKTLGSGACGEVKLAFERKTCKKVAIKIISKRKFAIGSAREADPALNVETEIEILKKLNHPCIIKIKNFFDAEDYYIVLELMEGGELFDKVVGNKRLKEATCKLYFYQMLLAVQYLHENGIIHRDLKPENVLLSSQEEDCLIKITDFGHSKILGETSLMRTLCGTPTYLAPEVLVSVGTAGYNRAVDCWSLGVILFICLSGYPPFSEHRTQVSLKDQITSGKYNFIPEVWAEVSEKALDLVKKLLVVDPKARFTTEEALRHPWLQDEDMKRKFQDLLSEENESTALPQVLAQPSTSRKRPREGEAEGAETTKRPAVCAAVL
Ribosomal protein S6 kinase alpha-5, sequence (O75582 whole entry): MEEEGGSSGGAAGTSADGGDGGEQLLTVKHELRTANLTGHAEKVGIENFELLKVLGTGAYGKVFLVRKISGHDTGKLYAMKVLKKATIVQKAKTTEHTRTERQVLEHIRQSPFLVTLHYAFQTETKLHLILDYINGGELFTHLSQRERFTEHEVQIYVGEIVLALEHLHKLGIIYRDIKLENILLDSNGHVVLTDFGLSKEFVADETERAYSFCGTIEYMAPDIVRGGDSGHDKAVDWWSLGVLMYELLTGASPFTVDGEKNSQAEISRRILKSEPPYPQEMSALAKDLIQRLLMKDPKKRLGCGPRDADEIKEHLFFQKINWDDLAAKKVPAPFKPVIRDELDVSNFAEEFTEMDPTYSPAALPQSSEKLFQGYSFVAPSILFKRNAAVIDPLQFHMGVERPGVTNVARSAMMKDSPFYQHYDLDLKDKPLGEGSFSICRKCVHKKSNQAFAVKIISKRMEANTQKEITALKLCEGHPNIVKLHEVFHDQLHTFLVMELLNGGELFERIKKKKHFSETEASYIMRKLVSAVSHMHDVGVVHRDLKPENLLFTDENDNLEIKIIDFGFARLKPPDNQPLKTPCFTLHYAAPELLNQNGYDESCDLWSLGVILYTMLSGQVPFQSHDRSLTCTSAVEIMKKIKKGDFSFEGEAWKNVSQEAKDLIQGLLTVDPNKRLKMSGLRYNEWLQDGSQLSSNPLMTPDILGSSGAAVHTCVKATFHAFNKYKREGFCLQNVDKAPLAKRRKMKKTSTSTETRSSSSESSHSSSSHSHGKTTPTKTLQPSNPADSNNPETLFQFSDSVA
Testis-specific serine/threonine-protein kinase 1, sequence (Q9BXA7 whole entry): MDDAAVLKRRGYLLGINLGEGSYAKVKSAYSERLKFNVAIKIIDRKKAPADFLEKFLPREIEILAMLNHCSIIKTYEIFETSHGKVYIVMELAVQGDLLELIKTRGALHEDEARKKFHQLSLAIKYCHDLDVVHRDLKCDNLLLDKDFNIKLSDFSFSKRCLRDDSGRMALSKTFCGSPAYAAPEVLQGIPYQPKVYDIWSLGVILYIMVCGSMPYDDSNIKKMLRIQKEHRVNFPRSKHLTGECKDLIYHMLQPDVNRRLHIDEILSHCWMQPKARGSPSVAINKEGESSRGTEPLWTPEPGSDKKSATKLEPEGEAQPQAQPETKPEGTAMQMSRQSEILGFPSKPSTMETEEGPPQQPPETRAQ
Tyrosine-protein kinase receptor UFO, sequence (P30530 whole entry): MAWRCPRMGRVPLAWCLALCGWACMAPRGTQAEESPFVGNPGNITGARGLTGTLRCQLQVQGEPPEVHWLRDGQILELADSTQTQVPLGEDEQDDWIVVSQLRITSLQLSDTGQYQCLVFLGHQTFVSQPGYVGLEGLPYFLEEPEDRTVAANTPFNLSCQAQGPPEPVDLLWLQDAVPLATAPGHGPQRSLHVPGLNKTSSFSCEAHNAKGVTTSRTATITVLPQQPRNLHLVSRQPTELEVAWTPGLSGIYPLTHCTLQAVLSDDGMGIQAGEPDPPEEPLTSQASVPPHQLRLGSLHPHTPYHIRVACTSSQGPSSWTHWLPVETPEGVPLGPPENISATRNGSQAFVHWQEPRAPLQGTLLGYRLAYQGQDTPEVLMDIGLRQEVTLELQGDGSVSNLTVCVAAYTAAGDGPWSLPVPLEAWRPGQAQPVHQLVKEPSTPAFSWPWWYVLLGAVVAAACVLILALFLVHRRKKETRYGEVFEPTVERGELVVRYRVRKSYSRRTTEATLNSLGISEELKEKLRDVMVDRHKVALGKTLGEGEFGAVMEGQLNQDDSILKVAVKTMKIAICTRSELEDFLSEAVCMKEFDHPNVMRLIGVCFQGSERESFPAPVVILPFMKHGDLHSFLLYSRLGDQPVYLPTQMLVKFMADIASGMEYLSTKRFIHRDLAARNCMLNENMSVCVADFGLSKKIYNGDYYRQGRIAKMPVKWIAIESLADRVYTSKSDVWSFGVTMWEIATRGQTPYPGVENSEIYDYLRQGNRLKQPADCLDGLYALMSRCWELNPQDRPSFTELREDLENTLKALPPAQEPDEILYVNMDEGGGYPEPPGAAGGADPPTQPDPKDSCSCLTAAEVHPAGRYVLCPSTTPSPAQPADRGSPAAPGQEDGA
Leukocyte tyrosine kinase receptor, sequence (P29376 whole entry): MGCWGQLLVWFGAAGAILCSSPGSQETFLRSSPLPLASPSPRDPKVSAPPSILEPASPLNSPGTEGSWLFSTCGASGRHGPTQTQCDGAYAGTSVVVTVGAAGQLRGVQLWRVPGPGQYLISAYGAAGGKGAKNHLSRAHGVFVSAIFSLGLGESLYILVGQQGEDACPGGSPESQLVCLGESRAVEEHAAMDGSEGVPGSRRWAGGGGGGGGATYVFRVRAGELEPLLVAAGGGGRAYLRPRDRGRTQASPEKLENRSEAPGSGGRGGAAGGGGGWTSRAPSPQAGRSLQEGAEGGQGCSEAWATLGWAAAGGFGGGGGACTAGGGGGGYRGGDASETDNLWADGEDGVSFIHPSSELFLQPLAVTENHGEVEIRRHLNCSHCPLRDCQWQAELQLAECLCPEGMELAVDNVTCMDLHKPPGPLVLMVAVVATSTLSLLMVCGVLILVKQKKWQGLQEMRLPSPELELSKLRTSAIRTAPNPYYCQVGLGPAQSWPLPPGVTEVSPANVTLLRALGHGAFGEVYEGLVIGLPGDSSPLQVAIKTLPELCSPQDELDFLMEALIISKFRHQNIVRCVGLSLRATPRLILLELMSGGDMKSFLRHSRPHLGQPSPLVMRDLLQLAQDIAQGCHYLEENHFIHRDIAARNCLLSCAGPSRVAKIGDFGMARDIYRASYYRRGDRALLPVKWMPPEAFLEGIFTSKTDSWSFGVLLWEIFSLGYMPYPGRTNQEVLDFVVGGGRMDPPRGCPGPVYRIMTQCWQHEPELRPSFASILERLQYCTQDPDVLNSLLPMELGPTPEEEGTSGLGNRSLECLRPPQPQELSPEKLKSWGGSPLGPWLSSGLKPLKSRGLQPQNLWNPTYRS
MAP kinase-activated protein kinase 2, sequence (P49137 whole entry): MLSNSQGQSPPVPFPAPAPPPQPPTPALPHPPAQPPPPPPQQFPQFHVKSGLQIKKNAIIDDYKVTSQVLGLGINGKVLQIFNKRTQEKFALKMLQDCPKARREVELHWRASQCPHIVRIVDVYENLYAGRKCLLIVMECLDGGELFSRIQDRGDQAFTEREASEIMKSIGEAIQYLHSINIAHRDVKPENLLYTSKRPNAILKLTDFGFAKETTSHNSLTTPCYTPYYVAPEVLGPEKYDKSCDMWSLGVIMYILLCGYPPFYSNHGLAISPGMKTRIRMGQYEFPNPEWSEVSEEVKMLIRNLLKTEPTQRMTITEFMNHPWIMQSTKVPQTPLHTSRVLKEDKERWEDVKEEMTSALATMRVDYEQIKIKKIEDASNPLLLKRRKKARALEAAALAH
Bcl-2-related protein A1, sequence (Q07440 whole entry): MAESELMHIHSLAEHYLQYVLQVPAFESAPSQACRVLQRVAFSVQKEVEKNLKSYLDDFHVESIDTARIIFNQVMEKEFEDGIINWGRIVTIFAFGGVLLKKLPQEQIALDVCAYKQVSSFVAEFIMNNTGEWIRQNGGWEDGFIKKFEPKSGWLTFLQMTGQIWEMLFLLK

## CCn1c(-c2nonc2N)nc2cncc(C(=O)N3CCC(N)C3)c21 (stereo not given)
[1]
  Ki: > 3.16 µM (inactive)
[2]
  Ki: 3.98 µM (active)
[3]
  Ki: 0.0398 µM (active)
[4]
  Ki: > 2.51 µM (inactive)
[5]
  Ki: 0.02 µM (active)
[6]
  Ki: 0.0316 µM (active)
[7]
  Ki: > 3.98 µM (inactive)

## COC(=O)c1ccccc1NC1=C/C(=N\S(=O)(=O)c2cccs2)c2ccccc2C1=O
[8]
  EC50: 7.96 µM (active)
[9]
  EC50: > 120 µM (not active)

## Cc1cc(C)c[n+](C2=C([N-]S(=O)(=O)c3cccs3)C(=O)c3ccccc3C2=O)c1
[10]
  IC50: > 50 µM (not active)

## Cc1[nH]nc2ccc(-c3cncc(OCC(N)Cc4c[nH]c5ccccc45)c3)cc12 (stereo not given)
[11]
  Ki: 3.98 µM (active)
[12]
  Ki: 0.501 µM (active)
[13]
  Ki: 2.51 µM (active)
Misshapen-like kinase 1
  Ki: 0.02 µM (active)
[14]
  Ki: > 10 µM (inactive)
[15]
  Ki: > 1.58 µM (inactive)
[16]
  Ki: 0.501 µM (active)
Focal adhesion kinase 1
  Ki: > 1.58 µM (inactive)
[17]
  Ki: 0.00631 µM (active)
[18]
  Ki: 1 µM (active)
[19]
  Ki: 0.501 µM (active)
[20]
  Ki: > 1.58 µM (inactive)
[21]
  Ki: > 3.98 µM (inactive)
[22]
  Ki: 1.58 µM (active)
[23]
  Ki: > 3.98 µM (inactive)
[24]
  Ki: > 3.16 µM (inactive)
[25]
  Ki: 0.794 µM (active)
[26]
  Ki: 0.316 µM (active)
[27]
  Ki: 0.794 µM (active)
[28]
  Ki: > 1.58 µM (inactive)
[29]
  Ki: > 2.51 µM (inactive)
[30]
  Ki: 0.0126 µM (active)
Insulin receptor
  Ki: 3.98 µM (active)
[31]
  Ki: 0.0501 µM (active)
[32]
  Ki: > 0.631 µM (inactive)
[33]
  Ki: > 10 µM (inactive)
[34]
  Ki: 0.794 µM (active)
[35]
  Ki: 0.000794 µM (active)

## CCCCCCCCCCC[N+](C)(C)CC/C=C1/c2ccccc2Sc2ccc(Cl)cc21
Bcl-2-related protein A1
  IC50: 8.26 µM (active)
CAAX prenyl protease 1
  AC50: 7.07 µM (active)
